Source: PubChem BioAssay (NCI)
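Values below derive from 48-hour exposures of cells grown in 96-well plates, with endpoints linearly interpolated between the two concentrations bracketing the appropriate inhibition level. GI50: concentration for 50% inhibition of growth. TGI is the concentration that stops growth completely.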

What was measured:
Test in all cases: DTP human tumour cell line panel, 48 h
BT-549 breast = system: BT-549 breast
CCRF-CEM leukemia = system: CCRF-CEM leukemia
HCC-2998 colon = system: HCC-2998 colon
TK-10 renal = system: TK-10 renal
MDA-N = system: MDA-N
HS 578T breast = system: HS 578T breast
SNB-75 CNS = system: SNB-75 CNS
XF 498 CNS = system: XF 498 CNS
HOP-18 NSCLC = system: HOP-18 NSCLC
DMS 273 small cell lung = system: DMS 273 small cell lung
M19-MEL melanoma = system: M19-MEL melanoma
DMS 114 small cell lung = system: DMS 114 small cell lung
KM20L2 colon = system: KM20L2 colon
SNB-78 CNS = system: SNB-78 CNS

Structure (SMILES)	TGI (BT-549 breast) [µM]	TGI (CCRF-CEM leukemia) [µM]	TGI (HCC-2998 colon) [µM]	TGI (TK-10 renal) [µM]	TGI (MDA-N) [µM]	TGI (HS 578T breast) [µM]	TGI (SNB-75 CNS) [µM]	also measured
COc1ccc(C(=O)NC2=C(Cl)C(=O)c3ccccc3C2=O)cc1	9.64	> 100	16.9	7.7	10.7	33.5	12.8	
O=NN1C(c2ccccc2)C2CCCC(C2=O)C1c1ccccc1 (stereo not drawn)		> 83.6	34.4				61	TGI (XF 498 CNS): 33.3 µM; TGI (HOP-18 NSCLC): > 25.2 µM; TGI (DMS 273 small cell lung): 55.2 µM; TGI (M19-MEL melanoma): 37.1 µM; TGI (DMS 114 small cell lung): > 93.8 µM; TGI (KM20L2 colon): 25.9 µM; TGI (SNB-78 CNS): > 100 µM
C[C@]12Cc3cnc(-c4ccccc4)nc3C[C@@H]1CC[C@@H]1[C@@H]2CC[C@@]2(C)[C@H]1CC[C@]2(C)O	54.6	77.7	37.9	39.1	48.9	65.2	21.6	
COC(=O)c1c(C)[nH]c2c1C(=O)C(=O)c1nc(C)c(C)nc1-2	23	35.7	24	9.68	19.9	58.6	7.95	
O=S(=O)(O)c1cc(S(=O)(=O)O)c2cc(N=Nc3c(O)ccc4ccccc34)ccc2c1	> 100	> 100		> 100	> 100	> 100	> 100	
COc1ccc(NC(=S)NNC(=O)c2nsc3ccccc23)cc1			> 100	> 100			66.8	TGI (DMS 273 small cell lung): 81.5 µM; TGI (M19-MEL melanoma): > 100 µM; TGI (DMS 114 small cell lung): > 100 µM; TGI (KM20L2 colon): > 100 µM; TGI (SNB-78 CNS): > 100 µM
Nc1c(OCC(=O)O)ccc2cc(S(=O)(=O)O)ccc12	> 100	> 100	> 100	> 100	> 100	> 100	> 100	
O=C(Nn1c(-c2cccs2)nc2ccc(I)cc2c1=O)c1ccccc1	51.9	> 100	58.6	63.1	> 100			GI50 (CCRF-CEM leukemia): 38.5 µM
CN1CC(c2ccccc2)C(O)(C2(c3ccccc3)CN(C)CC(c3ccccc3)C2=O)C(c2ccccc2)C1 (stereo not drawn)	> 100			> 100	> 100	94.2		
Cc1cn(C2C=CC(COP(=O)(OCc3ccc([N+](=O)[O-])o3)N(C)CCCCCl)O2)c(=O)[nH]c1=O (stereo not drawn)		25.4		34.3	11.8	9.89	10.8	
CC[C@H](C)C1=C(OC(C)=O)[N@+]2([O-])Oc3ccc(-c4c(O)c(O)c(-c5ccc(OC(C)=O)cc5)c(OC(C)=O)c4OC(C)=O)cc3O[C@]2([C@@H](C)CC)C(=O)N1O	> 50			> 50	> 50	> 50		
O=C(O)CCO/N=C1/C(c2c(O)[nH]c3ccccc23)=Nc2ccccc21	> 100	40.3	35.7	> 100	> 100	> 100	53.5	
CC[C@@]1(OC(=O)CN(C)C)C(=O)OCc2c1cc1n(c2=O)Cc2cc3c(N)cccc3nc2-1	> 100	0.025	0.875	> 100		58	0.283	GI50 (BT-549 breast): 0.0634 µM; GI50 (CCRF-CEM leukemia): < 0.01 µM; GI50 (HCC-2998 colon): 0.131 µM; GI50 (TK-10 renal): 1.68 µM; GI50 (HS 578T breast): 2.03 µM; GI50 (SNB-75 CNS): 0.0428 µM
OC(c1ccc(Cl)cc1)(c1ccc(Cl)cc1)c1cncnc1	42	54.1		57.5	37.7	66.6	52.7	
Clc1cc2ccccc2c2ccccc12	96.7	> 100	> 100	> 100		> 100	> 100	
O=C(O)C1OC1C(=O)O (stereo not drawn)	> 100		> 100	> 100	> 100	> 100	> 100	
CCc1c2cc(OC)c(OC)cc2cc2c3cc(OC)c(OC)cc3cc[n+]12 (tested in a mixture with another compound)	17.4	> 100	52	> 100	> 36.5	> 89.1	38.4	TGI (XF 498 CNS): 33.6 µM; TGI (HOP-18 NSCLC): > 100 µM; TGI (DMS 273 small cell lung): > 100 µM; TGI (M19-MEL melanoma): > 92.7 µM; TGI (DMS 114 small cell lung): 63.1 µM; TGI (KM20L2 colon): > 100 µM; TGI (SNB-78 CNS): > 100 µM
CO/N=C(/C)c1cccc(Nc2nc3ccc(Cl)cc3c3[nH]c4ccccc4c23)c1		> 100			24.3	45.8		
COc1cc2c(cc1OC)C1c3ccccc3CCN1CCC2 (stereo not drawn)	81.4	> 100	> 100	> 100	> 100		> 100	
CC(C)=Cc1cc(C)c2c3c(c(O)c(O)c(C)c13)C(C)=CC2=O					> 100	74.4		
CN(C)CCCNc1ccc2nnn3c4ccc(OC(=O)c5ccccc5)cc4c(=O)c1c23	32.7	7.98	26.1	24.3	30.1	36.6		
Clc1ccc(C2CC(c3cccc(Nc4ccncc4)c3)=NN2c2ccc(Cl)cc2)cc1 (stereo not drawn)			3.27	3.5			2.56	GI50 (HCC-2998 colon): 1.73 µM; GI50 (TK-10 renal): 1.87 µM; GI50 (SNB-75 CNS): 1.21 µM
c1ccc2c(c1)OCCc1cn[nH]c1-2		> 100	> 100				> 92.5	TGI (XF 498 CNS): > 100 µM; TGI (HOP-18 NSCLC): > 100 µM; TGI (DMS 273 small cell lung): > 100 µM; TGI (DMS 114 small cell lung): > 100 µM; TGI (KM20L2 colon): > 100 µM; TGI (SNB-78 CNS): > 100 µM
O=C1C[C@H](COCc2ccccc2)NC(=O)C[C@H](COCc2ccccc2)NC(=O)C[C@H](COCc2ccccc2)N1	> 100	> 100	> 100	41.1	> 100	> 100	8.27	
COc1ccc(C(=O)O[C@H]2CC[C@@]3(C)[C@@H]4CC[C@H]5[C@]6(O)C[C@H](O)[C@@]7(O)[C@@H](CN8C[C@@H](C)CC[C@H]8[C@@]7(C)O)[C@]6(O)C[C@@]53OC24O)cc1OC	> 100		> 100	> 100	> 100	> 100	> 100	
COc1ccc(/C=C2\C[C@H]3[C@@H]4CC=C5C[C@@H](OC(C)=O)CC[C@]5(C)[C@H]4CC[C@]3(C)\C2=N\O)cc1OC	> 100	> 100	> 100		> 100	> 100	> 100	
O=C1CCCC/C1=C1/SC(=Nc2ccccc2)C(=Nc2ccccc2)N1c1ccccc1	> 100	> 100	> 100		> 100	> 100	> 100	
O=C(O)C(O)(c1ccc(-c2ccccc2)cc1)c1ccc(-c2ccccc2)cc1	42.7			> 100	34.5		48.2	
